Patent US4442218A, “Method of measuring degree of partitioning” (Corning Glass Works, priority 1981, dated 1984)
pKd: −log10 of the molar value. Like-named read-outs stand apart in the source and are kept apart here.

Legend:
[1] = target: thyroxine antibodies immobilized within the pores of stainless steel cylindrical monoliths; assay: Scatchard plot evaluation of binding constant, stainless steel cylindrical monoliths; design: species or system rabbit; conditions: ambient temperature, overnight, shaking, cylindrical monolith, read-out: binding constant K (slope of Scatchard plot) (converted)
Method: The treated monoliths were combined with 3.0 ml of a stock solution (prepared as described below) of an immunoglobulin-enriched fraction of an antithyroxine antiserum per 100 g of monoliths dissolved in sufficient 0.1 M phosphate buffer solution (PBS) at pH 7.0 to insure complete submersion of the monoliths (the 3.0 ml of stock solution was equivalent to 0.3 mg of protein per monolith). A water aspirator vacuum was applied to the resulting mixture for a time sufficient to insure complete penetration of the liquid phase into the pores of the monoliths. The mixture then was maintained at 4° on a reciprocating shake table (Eberbach Corporation, Ann Arbor, Mich.) for 48 hours. […] If the bound and free antigen can be separated and the quantity bound measured, then the value of K can be determined by constructing a Scatchard plot; see, e.g., E. D. Day, "Advanced Immunochemistry", Williams & Wilkens Co., Baltimore, Md., 1972, pp. 118ff. Such a procedure is particularly suited to solid-phase immunoassay systems since the bound antigen is readily separated from the free or unbound antigen. The value of K for the monolith-thyroxine antibody complex was determined as follows. […] (3) Each tube was counted for one minute to obtain total counts. […]

[2] = target: thyroxine antibodies immobilized within the pores of stainless steel disc-shaped monoliths; assay: Scatchard plot evaluation of binding constant, stainless steel disc-shaped monoliths; design: species or system rabbit; conditions: total liquid volume 0.5 ml; disc-shaped monolith, 0.5 mg protein per monolith; read-out: binding constant K (Scatchard plot)
Method: The procedure of Example 1 was repeated, except that the cylindrical monoliths were replaced with 316 stainless steel discs 8 mm in diameter and 1.6 mm in thickness and the amount of protein per monolith was increased to 0.5 mg. Mean pore diameters were about 40μ and the total surface area of each disc was about 60 cm^2. In a random sampling of 10 discs, the average weight per disc was 0.330 g with a coefficient of variation of 0.3 percent. The discs were obtained as Stock No. S-2298 from Sintered Specialties, Janesville, Wisc. The Scatchard plot data were obtained using a total liquid volume of 0.5 ml per tube and serial dilutions of I^125 -labeled thyroxine from about 500,000 cpm to about 25,000 cpm.

N[C@@H](Cc1cc(I)c(Oc2cc(I)c(O)c(I)c2)c(I)c1)C(=O)O [thyroxine]
Kd ([1]; total reaction volume 0.5 ml): 0.175 nM
Kd ([1]; total reaction volume 1.0 ml): 0.167 nM
pKd [2]: 9.00
